# Structures can show the parent of a compound that is named as a salt.
# Tests used:
# Format in all cases: physicochemical
# [1] = Suspension competitive crystal transformation test of crystalline forms I and III of the tartrate salt (XRPD); settings: for Crystalline form after suspension competition: 24 h
# Experimental: Crystalline form I and crystalline form III (each 20 mg) were weighed and added into a 2 mL or 10 mL glass bottle, and 0.5 mL or 1 mL of organic solvent was added, respectively, according to the solubility. Two batches were prepared with the same solvent, and placed respectively at room temperature and 50° C. for suspension competition for 24 h. The suspension was centrifuged (10000 rpm, 3 min). The obtained solid powder was then vacuum-dried and tested for XRPD (See FIGS. 30 and 31 for details).
# [2] = Solubility test (shaker 25° C., 24 hours, filtrate by HPLC); settings: for solubility at 24 h: 25 °C, thermodynamic from solid
# Experimental: (§1) A certain amount of crystalline form A of free base of the compound of formula (I), crystalline form I of the tartrate salt, and crystalline form III of the tartrate salt were weighed and placed in a 5 mL sample bottle. Deionized water, pH 2.0 glycine-hydrochloric acid buffer solution, pH 4.5 Na2HPO4-citric acid buffer solution, and pH 6.8 Na2HPO4-citric acid buffer solution were added respectively (each 2 mL). The mixture was placed on a shaker at 25° C., shaken for 24 hours, and then filtered. The filtrate was tested for solubility by HPLC; and the solid was detected by XRPD to determine whether the crystalline form was transformed.
# The chromatographic conditions were as follows: • Chromatographic column: Unitary C18 (5 μm, 100 A, 4.6×250 mm) • Mobile phase: Phase A was ammonium acetate with pH of 6.2, and phase B was acetonitrile, A: B=10:90. • Detection wavelength: 230 nm, Column temperature: 35° C. • Injection volume: 20 μL
# [3] = XRPD of the solid after the solubility test (crystal transformation)
# Experimental: as §1
# [4] = Accelerated stability test: influence factor test and accelerated test, solid XRPD; settings: for Stability of crystalline form, summary in words: high temperature, high humidity, strong light and accelerated test conditions
# Experimental: According to the stability test requirements for the raw drug in the fourth part of the 2015 edition of the “Chinese Pharmacopoeia”, “Guiding Principles for the Stability Test of Raw Drugs and Preparations”, the influence factor test and the accelerated test were investigated on crystalline form.
# High temperature test (T): The powder was placed in a suitable sealed glass bottle, and placed at 60° C. for 10 days. Samples were taken on the 5th and 10th day to detect the solid XRPD.
# High humidity test (H): The powder was placed in an open constant temperature and humidity box, and placed at 25° C., 90%±5% RH for 10 days. Samples were taken on the 5th and 10th day and the solid XRPD was detected so as to investigate the moisture absorption and deliquescence performances.
# Strong light irradiation test (L): The powder was placed in an open box equipped with a fluorescent lamp, and placed under the condition of an illumination of 4500±5001x for 10 days. Samples were taken on the 5th and 10th day to detect the solid XRPD.
# Accelerated test (A): The powder was placed in an open constant temperature and humidity box, and placed at 40° C., 75%±5% RH for 10 days. Samples were taken on the 5th and 10th day to detect the solid XRPD.
# [5] = Stability under pressure condition (powder tablet press, XRPD); settings: mechanical pressures of 2, 4, 6, 8, and 10 N, 5 minutes
# Experimental: An appropriate amount of powders of crystalline form A of the free base, crystalline form I of the tartrate salt, and crystalline form III of the tartrate salt were weighed and evenly spread on the bottom of the mold of a powder tablet press. To simulate the pressure conditions in a formulation process, mechanical pressures of 2, 4, 6, 8, and 10 N were applied respectively. The pressure was kept stable for 5 minutes, and then samples were taken for XRPD to investigate the stability of the crystalline form under pressure conditions. For details of patterns, see FIGS. 24-26.
# [6] = Stability under grinding condition (ball mill, XRPD); settings: automatic ball mill, grinding 5, 10, 15, and 30 min
# Experimental: An appropriate amount of powders of crystalline form A of the free base, crystalline form I of the tartrate salt and crystalline form III of the tartrate salt were weighed and evenly spread in an agate mortar. Agate beads were added. To simulate the grinding conditions in a formulation process, the vibration frequency of the automatic ball mill was set at 25S-1, and the grinding was carried out for 5, 10, 15, and 30 min, respectively. Then samples were taken for XRPD to investigate the stability of the crystalline form under grinding conditions. For details of patterns, see FIGS. 27-29.
# [7] = Water adsorption and desorption test (DVS); settings: for Moisture absorption: 25° C.
# Experimental: • 4. Gravimetric Dynamic Vapor Sorption Isotherm Plot (DVS)
# Dynamic water adsorption instrument (DVS) was used to investigate the adsorption and desorption test of crystalline forms I and III of the tartrate salt at 25° C. in the range of 0-95% relative humidity, so as to determine hygroscopicity of various crystalline forms (For details, see FIGS. 4d and 5d).
# [8] = Deionized water, 25° C., 24 hours
# [9] = pH 6.8 Na2HPO4-citric acid buffer solution, 25° C., 24 hours
# [10] = pH 2.0 glycine-hydrochloric acid buffer solution, 25° C., 24 hours
# [11] = pH 4.5 Na2HPO4-citric acid buffer solution, 25° C., 24 hours
# [12] = pH 6.8 buffered saline solution
# [13] = solid after solubility test in deionized water
# [14] = Accelerated (40° C./75%), 5 days
# [15] = Accelerated (40° C./75%), 10 days
# [16] = High humidity (92.5% RH), 25° C., 5 days
# [17] = High humidity (92.5% RH), 25° C., 10 days
# [18] = High temperature (60° C.), 5 days
# [19] = High temperature (60° C.), 10 days
# [20] = Strong light (4500 lx), 10 days
"Solubility [2, 8] [µg/mL]","Solubility [2, 9] [µg/mL]","Solubility [2, 10] [µg/mL]","Solubility [2, 11] [µg/mL]","Solubility compared with the amorphous form of the free base [2, 12]","Crystal transformation as detected by XRPD [3, 13]","Stability of crystalline form (XRPD) [4, 14]","Stability of crystalline form (XRPD) [4, 15]","Stability of crystalline form (XRPD) [4, 16]","Stability of crystalline form (XRPD) [4, 17]","Stability of crystalline form (XRPD) [4, 18]","Stability of crystalline form (XRPD) [4, 19]","Stability of crystalline form (XRPD) ([4]; Strong light (4500 lx), 5 days)","Stability of crystalline form (XRPD) [4, 20]",Stability of the crystalline form under pressure conditions (XRPD) [5],Stability of the crystalline form under grinding conditions (XRPD) [6],Moisture absorption ([7]; from 90% to 95% RH) [%],Moisture absorption ([7]; humidity range of 40-80% RH) [%],Compound,"Stability of crystalline form, summary in words [4]",further results
33,1060,>10000,>10000,significantly improved,no crystal transformation,Consistent,Consistent,Consistent,Consistent,Consistent,Consistent,Consistent,Consistent,stable,become amorphous,,,COc1cc(C(=O)NC2CCN(C)CC2)c(F)cc1Nc1ncc(C(F)(F)F)c(Oc2cccc3c2C(=O)N(C)C3)n1 [Crystalline form A of the free base],stable under above test conditions without crystal transformation,Crystal transformation as detected by XRPD ([3]; solid after solubility test in pH 6.8 buffered saline solution): no crystal transformation
>10000,>10000,>10000,>10000,,,Consistent,Consistent,Consistent,"Consistent,",Consistent,Consistent,Consistent,Consistent,stable,become amorphous,18.1,0.37,COc1cc(C(=O)NC2CCN(C)CC2)c(F)cc1Nc1ncc(C(F)(F)F)c(Oc2cccc3c2C(=O)N(C)C3)n1 [Crystalline form III of the tartrate salt],stable under above test conditions without crystal transformation,Solubility ([2]; all the solvent systems): very good solubility; Crystallinity ([4]; high-humidity environment): reduced

# The remaining lines, values behind:
Compound,"Solubility [2, 8] [µg/mL]","Solubility [2, 9] [µg/mL]","Solubility [2, 10] [µg/mL]","Solubility [2, 11] [µg/mL]","Solubility compared with the amorphous form of the free base [2, 12]","Crystal transformation as detected by XRPD [3, 13]","Stability of crystalline form (XRPD) [4, 14]","Stability of crystalline form (XRPD) [4, 15]","Stability of crystalline form (XRPD) [4, 16]","Stability of crystalline form (XRPD) [4, 17]","Stability of crystalline form (XRPD) [4, 18]","Stability of crystalline form (XRPD) [4, 19]","Stability of crystalline form (XRPD) ([4]; Strong light (4500 lx), 5 days)","Stability of crystalline form (XRPD) [4, 20]",Stability of the crystalline form under pressure conditions (XRPD) [5],Stability of the crystalline form under grinding conditions (XRPD) [6],Moisture absorption ([7]; from 90% to 95% RH) [%],Moisture absorption ([7]; humidity range of 40-80% RH) [%],"Stability of crystalline form, summary in words [4]",further results
COc1cc(C(=O)NC2CCN(C)CC2)c(F)cc1Nc1ncc(C(F)(F)F)c(Oc2cccc3c2C(=O)N(C)C3)n1,,,,,,,,,,,,,,,,,,,,"Crystalline form after suspension competition ([1]; Cyclohexane, 50° C.): Mixture; Crystalline form after suspension competition ([1]; Cyclohexane, room temperature): Mixture; Crystalline form after suspension competition ([1]; Methyl tert-butyl ether, 50° C.): Mixture; Crystalline form after suspension competition ([1]; Methyl tert-butyl ether, room temperature): Mixture"
COc1cc(C(=O)NC2CCN(C)CC2)c(F)cc1Nc1ncc(C(F)(F)F)c(Oc2cccc3c2C(=O)N(C)C3)n1 [Amorphous form of the free base],1070,50,,,,,,,,,,,,,,,,,,"solubility at 24 h ([2]; Na2HPO4-citric acid buffer, pH 4.5, aqueous buffer, pH 4.5 Na2HPO4-citric acid buffer solution, 24 hours): 8500 µg/mL; solubility at 24 h ([2]; glycine-hydrochloric acid buffer, pH 2, aqueous buffer, pH 2.0 glycine-hydrochloric acid buffer solution, 24 hours): > 10000 µg/mL"
COc1cc(C(=O)NC2CCN(C)CC2)c(F)cc1Nc1ncc(C(F)(F)F)c(Oc2cccc3c2C(=O)N(C)C3)n1 [Crystalline form I of the tartrate salt],2590,>10000,>10000,5200,significantly improved,no crystal transformation,Consistent,Consistent,Consistent,Consistent,Consistent,Consistent,Consistent,Consistent,stable,only reduced in the degree of crystallinity,0.08,0.33,stable under above test conditions without crystal transformation,"Solubility compared with the amorphous form of the free base ([2]; deionized water): significantly improved; Weight gain (DVS) ([7]; increase in relative humidity from about 0 to about 95%): about 1%; Relative stability of the crystalline form in suspension competition ([1]; conventional solvents except methyl tert-butyl ether and cyclohexane, room temperature and 50° C.): stable crystalline form"
